Results published in publication PMC12281424, “A Rac-specific competitive inhibitor of guanine nucleotide binding reduces metastasis in triple-negative breast cancer” (Cell Reports Medicine, 2025).

Columns and labels:
[1] = In vivo pharmacokinetics and tissue distribution; set-up: species or system mouse; conditions: 25 mg/kg i.p.
Method: A41 was administrated intraperitoneally (25 mg/kg, aqueous solution of A41 in 5% DMSO, 50% PEG) in 2 months old C57Bl/6 after 4 h of fasting. After 5, 30, 60, 120 and 360 minutes following injection, mice (n = 3 per kinetic time) were sacrificed and tissues (blood, heart, lung, liver, kidney and brain) were collected. Control mice (n = 5) were used to get blank tissues for mass spectrometry analyses. Blood was collected by cardiac puncture into tubes containing 10% EDTA. Immediately after blood collection, plasma was separated by centrifugation for 5 min at 4 °C (2,000 × g). Solid tissues were rapidly excised and snap frozen in liquid nitrogen before to be disrupted and homogenized in PBS (1/10; wt/vol) using TissueLyser II (Quiagen). A41 concentrations were determined in mouse plasma and tissues by liquid chromatography-tandem mass spectrometry (LC-MS/MS). All solvents were LC-MS grade and purchased from Biosolve (Valkenswaard, Netherlands). A41 10× standard solutions were prepared and serially diluted in acetonitrile to obtain 8 standard solutions ranging 10-20,000 nmol/L. A41 10X standard solutions (5 μL or 20 μL) were added to blank plasma (45 μL) or blank tissue homogenates (180 μL), respectively, to get final concentrations ranging 1-2,000 nmol/L. Acetonitrile (5 μL or 20 μL) was added to plasma (45 μL) or tissue samples (180 μL). Tissue homogenates (standards and samples) were then centrifugated for 5 min at 5,000 × g for 5 min at 10 °C and supernatants (100 μL) were collected. Proteins were precipitated by the addition of 150 μL or 300 μL of acetonitrile containing labeled D3-A41 as internal standard (200 nmol/L) in all plasma (50 μL) and tissue supernatants (100 μL), respectively. After centrifugation (17,000 × g, 10 min, 10 °C), supernatants were collected and dried under a gentle stream of nitrogen. Dried samples were finally reconstituted with 25% acetonitrile containing 0.1% formic acid (100 μL), and injected into the LC-MS/MS system. Analyses were performed on a Xevo® TQD mass spectrometer with an electrospray (ESI) interface and an Acquity H-Class® UPLC™ device (Waters Corporation, Milford, MA, USA). Samples (10 μL) were injected onto a BEH C18 column (1.7 μm; 2.1 × 50 mm, Waters Corporation) held at 60 °C, and compounds were separated with a linear gradient of mobile phase B (acetonitrile, 0.1% formic acid) in mobile phase A (water, 0.1% formic acid) at a flow rate of 500 μL/min. […] A41 and its internal standard d3-A41 were then detected by the mass spectrometer with the ESI interface operating in the positive ion mode (capillary voltage, 3 kV; desolvatation gas (N2) flow and temperature, 900 L/h and 450 °C; source temperature, 120 °C). The multiple reaction monitoring mode was applied for MS/MS detection at the following mass-to-charge (m/z) ratio transitions: 487.1 → 153.0 and 490.2 → 156.0 for A41 and d3-A41, respectively. Cone voltage and collision energy were set at 35 V and 20 eV, respectively. Data acquisition and processing were achieved using MassLynx® and TargetLynx® softwares (version 4.1, Waters Corporation). Chromatographic peak area ratios between A41 and its internal standard constituted the detector responses. Standard solutions were used to plot calibration curves for quantification and dilution factors related to biological matrix preparations were included in calculation. The linearity was expressed by the mean r^2 which was greater than 0.995 for all matrices (linear regression, 1/x weighting, origin excluded). AUC0-6h was calculated as follow: AUC0−6h=∫06hC0e^−Ktdt=C0/K Where K = constant of elimination, and […].
Supplementary Fig. 7: A41 pharmacokinetics. (a) Molecule distribution in plasma and indicatedorgans afterintraperitonealinjectionof A41 (25 mg/kg) in mice(N=3 mice/kinetictimepoint). (b) Pharmacokinetic parametersof A41 calculated in mice after a singleintraperitonealinjection(25mg/kg). AUC = Area Under the Concentration-time curve.

CaMKIIγ(h) = CaMKIIγ(h) (Homo sapiens, UniProt Q13555); assay: Kinase Profiler; format: biochemical
Method: (§1) The kinase profiler was performed by the company Eurofins (Discovery, Panlab and Cerep).

CDK4/cyclinD3(h) = CDK4/cyclinD3(h) (Homo sapiens, UniProt P11802); assay: Kinase Profiler; format: biochemical
Method: (§2) Blood cell counts, kinase profiler, safety screen, bacterial cytotoxicity, Ames, micronucleus assays were performed by the company Eurofins (France). The kinase profiler was performed by the company Eurofins (Discovery, Panlab and Cerep).

EphA4(h) = EphA4(h) (Homo sapiens, UniProt P54764); assay: Kinase Profiler; format: biochemical
Method: as §2

Fms(Y969C)(h) = Fms(Y969C)(h) (Homo sapiens, UniProt P07333, Y969C); assay: Kinase Profiler; format: biochemical
Method: as §1

Fyn(h) = Fyn(h) (Homo sapiens, UniProt P06241); assay: Kinase Profiler; format: biochemical
Method: as §1

GSK3β(h) = GSK3β(h) (Homo sapiens, UniProt P49841); assay: Kinase Profiler; format: biochemical
Method: as §2

IGF-1R(h), activated = IGF-1R(h), activated (Homo sapiens, UniProt P08069); assay: Kinase Profiler; format: biochemical
Method: as §2

LOK(h) = LOK(h) (Homo sapiens, UniProt O94804); assay: Kinase Profiler; format: biochemical
Method: as §1

MAP4K3(h) = MAP4K3(h) (Homo sapiens, UniProt Q8IVH8); assay: Kinase Profiler; format: biochemical
Method: as §1

MLK4(h) = MLK4(h) (Homo sapiens, UniProt Q5TCX8); assay: Kinase Profiler; format: biochemical
Method: as §2

PAK6(h) = PAK6(h) (Homo sapiens, UniProt Q9NQU5); assay: Kinase Profiler; format: biochemical
Method: as §1

Rse(h) = Rse(h) (Homo sapiens, UniProt Q06418); assay: Kinase Profiler; format: biochemical
Method: as §1

Rsk3(h) = Rsk3(h) (Homo sapiens, UniProt Q15349); assay: Kinase Profiler; format: biochemical
Method: as §1

SRMS(h) = SRMS(h) (Homo sapiens, UniProt Q9H3Y6); assay: Kinase Profiler; format: biochemical
Method: as §1

Tie2 (h) = Tie2 (h) (Homo sapiens, UniProt Q02763); assay: Kinase Profiler; format: biochemical
Method: as §2

Wee1B(h) = Wee1B(h) (Homo sapiens, UniProt P0C1S8); assay: Kinase Profiler; format: biochemical
Method: as §1

PI3K (p110d/p85a)(h) = PI3K (p110d/p85a)(h) (Homo sapiens, UniProt O00329); assay: Kinase Profiler; format: biochemical
Method: as §2

GSK3β(h), sequence (P49841 whole entry): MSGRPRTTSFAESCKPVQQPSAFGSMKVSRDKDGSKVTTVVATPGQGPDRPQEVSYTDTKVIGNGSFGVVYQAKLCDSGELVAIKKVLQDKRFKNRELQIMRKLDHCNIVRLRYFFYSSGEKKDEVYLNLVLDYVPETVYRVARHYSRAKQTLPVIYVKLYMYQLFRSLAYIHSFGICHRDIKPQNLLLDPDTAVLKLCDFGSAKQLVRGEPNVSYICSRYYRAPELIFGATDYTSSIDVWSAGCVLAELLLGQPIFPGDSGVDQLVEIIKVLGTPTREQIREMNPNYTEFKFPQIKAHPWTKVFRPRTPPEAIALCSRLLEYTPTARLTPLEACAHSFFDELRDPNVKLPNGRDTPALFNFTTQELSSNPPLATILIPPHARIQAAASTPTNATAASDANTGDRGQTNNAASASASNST
EphA4(h), sequence (P54764 20-986): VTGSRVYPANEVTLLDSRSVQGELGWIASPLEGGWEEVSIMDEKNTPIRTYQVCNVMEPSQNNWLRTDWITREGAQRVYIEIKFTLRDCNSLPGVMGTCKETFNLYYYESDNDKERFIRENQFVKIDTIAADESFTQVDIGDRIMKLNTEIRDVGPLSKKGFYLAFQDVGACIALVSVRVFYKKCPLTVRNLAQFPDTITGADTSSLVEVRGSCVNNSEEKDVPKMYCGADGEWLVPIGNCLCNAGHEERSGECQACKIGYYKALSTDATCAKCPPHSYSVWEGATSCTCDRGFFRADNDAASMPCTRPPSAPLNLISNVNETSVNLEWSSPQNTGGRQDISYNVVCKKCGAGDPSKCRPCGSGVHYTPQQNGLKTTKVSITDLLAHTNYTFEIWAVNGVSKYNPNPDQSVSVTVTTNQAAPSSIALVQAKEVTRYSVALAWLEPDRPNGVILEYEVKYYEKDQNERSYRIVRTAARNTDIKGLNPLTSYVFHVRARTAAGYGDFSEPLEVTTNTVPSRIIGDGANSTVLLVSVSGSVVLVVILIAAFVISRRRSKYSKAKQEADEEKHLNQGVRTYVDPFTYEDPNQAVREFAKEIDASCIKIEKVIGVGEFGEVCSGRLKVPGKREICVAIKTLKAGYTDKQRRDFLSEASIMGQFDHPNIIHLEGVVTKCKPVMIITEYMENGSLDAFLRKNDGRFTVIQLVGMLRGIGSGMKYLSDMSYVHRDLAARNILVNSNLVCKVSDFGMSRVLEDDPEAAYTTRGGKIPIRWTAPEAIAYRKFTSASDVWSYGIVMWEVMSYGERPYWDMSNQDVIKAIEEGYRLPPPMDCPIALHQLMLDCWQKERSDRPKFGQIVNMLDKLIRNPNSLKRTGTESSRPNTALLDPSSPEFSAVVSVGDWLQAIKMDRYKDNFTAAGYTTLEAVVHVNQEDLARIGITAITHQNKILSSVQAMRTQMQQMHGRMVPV
LOK(h), sequence (O94804 whole entry): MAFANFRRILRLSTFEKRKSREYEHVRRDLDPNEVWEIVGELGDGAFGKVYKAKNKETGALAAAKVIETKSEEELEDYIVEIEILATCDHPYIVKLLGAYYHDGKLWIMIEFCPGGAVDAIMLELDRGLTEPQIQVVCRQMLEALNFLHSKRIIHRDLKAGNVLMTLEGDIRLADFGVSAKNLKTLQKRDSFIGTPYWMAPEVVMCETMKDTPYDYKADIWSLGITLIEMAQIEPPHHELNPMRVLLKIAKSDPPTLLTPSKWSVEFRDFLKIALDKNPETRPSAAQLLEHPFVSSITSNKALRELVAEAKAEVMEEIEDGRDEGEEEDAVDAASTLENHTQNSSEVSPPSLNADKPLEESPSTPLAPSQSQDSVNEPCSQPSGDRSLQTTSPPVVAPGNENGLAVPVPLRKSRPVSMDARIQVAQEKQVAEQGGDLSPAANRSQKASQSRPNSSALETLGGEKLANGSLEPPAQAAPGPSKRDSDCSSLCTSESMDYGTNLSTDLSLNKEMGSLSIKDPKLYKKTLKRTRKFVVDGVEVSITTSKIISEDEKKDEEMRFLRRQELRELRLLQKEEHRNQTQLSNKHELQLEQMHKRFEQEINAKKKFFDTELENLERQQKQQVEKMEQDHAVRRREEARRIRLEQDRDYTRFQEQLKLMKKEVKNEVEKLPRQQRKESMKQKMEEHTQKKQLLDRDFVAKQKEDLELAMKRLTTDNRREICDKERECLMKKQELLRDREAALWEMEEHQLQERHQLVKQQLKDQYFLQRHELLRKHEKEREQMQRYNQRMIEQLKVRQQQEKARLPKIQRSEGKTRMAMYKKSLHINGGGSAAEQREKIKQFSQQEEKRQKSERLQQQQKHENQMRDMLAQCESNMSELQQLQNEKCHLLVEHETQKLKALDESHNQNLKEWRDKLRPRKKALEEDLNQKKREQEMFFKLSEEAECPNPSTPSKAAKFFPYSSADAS
Wee1B(h), sequence (P0C1S8 whole entry): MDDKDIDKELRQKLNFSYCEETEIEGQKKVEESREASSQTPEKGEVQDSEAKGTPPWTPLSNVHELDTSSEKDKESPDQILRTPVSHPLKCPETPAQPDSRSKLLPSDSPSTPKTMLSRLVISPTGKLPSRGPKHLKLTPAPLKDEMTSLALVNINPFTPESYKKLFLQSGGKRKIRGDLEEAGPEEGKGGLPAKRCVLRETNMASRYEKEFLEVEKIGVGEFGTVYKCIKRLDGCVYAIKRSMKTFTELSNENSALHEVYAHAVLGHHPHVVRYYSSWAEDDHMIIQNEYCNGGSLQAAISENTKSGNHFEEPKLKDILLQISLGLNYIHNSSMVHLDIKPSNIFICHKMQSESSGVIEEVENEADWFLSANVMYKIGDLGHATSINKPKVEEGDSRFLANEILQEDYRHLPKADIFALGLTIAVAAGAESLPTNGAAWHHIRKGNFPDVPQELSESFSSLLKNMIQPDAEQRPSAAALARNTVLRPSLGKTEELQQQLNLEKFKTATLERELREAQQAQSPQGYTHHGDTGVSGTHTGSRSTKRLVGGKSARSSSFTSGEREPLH
Rsk3(h), sequence (Q15349 whole entry): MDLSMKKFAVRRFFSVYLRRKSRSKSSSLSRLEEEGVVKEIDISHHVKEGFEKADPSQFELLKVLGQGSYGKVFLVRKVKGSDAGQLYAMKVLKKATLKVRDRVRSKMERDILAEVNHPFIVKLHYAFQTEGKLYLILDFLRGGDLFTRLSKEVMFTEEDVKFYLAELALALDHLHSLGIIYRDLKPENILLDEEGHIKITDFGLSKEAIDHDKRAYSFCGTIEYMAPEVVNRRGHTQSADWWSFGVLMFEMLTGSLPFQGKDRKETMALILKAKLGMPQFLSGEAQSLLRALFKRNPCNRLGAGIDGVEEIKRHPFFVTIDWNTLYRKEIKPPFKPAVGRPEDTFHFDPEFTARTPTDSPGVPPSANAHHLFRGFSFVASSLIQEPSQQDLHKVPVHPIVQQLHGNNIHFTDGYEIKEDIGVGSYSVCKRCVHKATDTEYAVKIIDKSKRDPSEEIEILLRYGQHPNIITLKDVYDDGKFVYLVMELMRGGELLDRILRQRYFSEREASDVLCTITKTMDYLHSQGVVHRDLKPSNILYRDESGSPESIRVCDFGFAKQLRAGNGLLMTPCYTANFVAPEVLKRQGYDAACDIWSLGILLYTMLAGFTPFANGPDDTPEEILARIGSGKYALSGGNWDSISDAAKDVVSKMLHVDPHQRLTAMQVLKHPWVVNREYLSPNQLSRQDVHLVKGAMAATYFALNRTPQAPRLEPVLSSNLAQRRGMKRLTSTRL
CDK4/cyclinD3(h), sequence (P11802 whole entry): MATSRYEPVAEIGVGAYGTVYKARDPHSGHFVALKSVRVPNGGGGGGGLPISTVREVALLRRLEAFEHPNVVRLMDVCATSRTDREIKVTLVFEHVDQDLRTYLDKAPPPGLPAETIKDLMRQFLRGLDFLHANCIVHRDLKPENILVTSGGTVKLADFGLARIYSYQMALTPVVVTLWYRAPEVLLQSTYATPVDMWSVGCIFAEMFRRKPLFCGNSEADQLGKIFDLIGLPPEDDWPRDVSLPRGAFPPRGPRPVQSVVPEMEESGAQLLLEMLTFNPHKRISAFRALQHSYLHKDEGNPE
CDK4/cyclinD3(h), sequence (P30281 whole entry partner): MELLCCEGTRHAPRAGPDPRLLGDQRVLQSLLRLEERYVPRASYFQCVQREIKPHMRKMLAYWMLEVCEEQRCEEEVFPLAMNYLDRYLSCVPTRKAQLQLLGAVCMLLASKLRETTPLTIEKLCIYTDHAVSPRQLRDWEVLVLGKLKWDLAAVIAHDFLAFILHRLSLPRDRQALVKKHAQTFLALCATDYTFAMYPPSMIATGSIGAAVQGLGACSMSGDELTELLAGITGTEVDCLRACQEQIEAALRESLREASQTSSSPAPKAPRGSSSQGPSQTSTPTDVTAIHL
CaMKIIγ(h), sequence (Q13555 whole entry): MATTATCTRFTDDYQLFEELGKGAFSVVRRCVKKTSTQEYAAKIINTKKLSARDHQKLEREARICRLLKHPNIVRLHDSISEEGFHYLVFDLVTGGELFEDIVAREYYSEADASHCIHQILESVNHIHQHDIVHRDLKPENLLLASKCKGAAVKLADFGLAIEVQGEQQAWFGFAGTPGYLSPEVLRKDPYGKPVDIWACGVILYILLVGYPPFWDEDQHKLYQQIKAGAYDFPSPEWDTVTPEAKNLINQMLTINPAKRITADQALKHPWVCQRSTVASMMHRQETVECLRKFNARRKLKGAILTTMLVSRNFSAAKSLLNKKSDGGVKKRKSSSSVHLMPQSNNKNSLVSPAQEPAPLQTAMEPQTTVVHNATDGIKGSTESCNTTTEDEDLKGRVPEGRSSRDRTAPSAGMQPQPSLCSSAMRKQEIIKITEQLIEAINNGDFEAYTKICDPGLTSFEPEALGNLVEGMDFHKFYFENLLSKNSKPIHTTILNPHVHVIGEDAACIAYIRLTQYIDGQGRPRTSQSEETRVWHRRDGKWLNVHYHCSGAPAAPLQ

## COc1ccc(OC)c(NS(=O)(=O)c2ccc(NC(=O)CCSc3ccc(C)cc3)cc2)c1 [Compound A41]
[1]
  C0: 4335 ng/mL
  blood-brain barrier crossing: could not cross the blood-brain barrier
  t ½: 1.6294 h
  time over which plasma concentration declined: 2 to 3 h
  tissue concentration, brain: extremely low concentration
  tissue concentration, kidney: highest concentration
  tissue distribution, liver, heart, and lungs: detected
[1]; parameter list
  AUC0-6h: 14.3 µg·h/mL
[1]; plasma
  AUC0-6h: 14.3 (µg/ mL)xh
  Cmax (peak plasma concentration): 15056 ± 500 ng/mL
CaMKIIγ(h)
  Activity(%): 92%
CDK4/cyclinD3(h)
  Activity(%): 96%
EphA4(h)
  Activity(%): 111%
Fms(Y969C)(h)
  Activity(%): 107%
Fyn(h)
  Activity(%): 102%
GSK3β(h)
  Activity(%): 90%
IGF-1R(h), activated
  Activity(%): 108%
LOK(h)
  Activity(%): 112%
MAP4K3(h)
  Activity(%): 98%
MLK4(h)
  Activity(%): 104%
PAK6(h)
  Activity(%): 99%
Rse(h)
  Activity(%): 102%
Rsk3(h)
  Activity(%): 93%
SRMS(h)
  Activity(%): 102%
Tie2 (h)
  Activity(%): 110%
Wee1B(h)
  Activity(%): 89%
PI3K (p110d/p85a)(h)
  Activity(%): 100%
